# pIC50: −log10 of the molar value.
# System: bioluminescent sensor strain Escherichia coli MT102 (pSB403)
# Test: Biosensor assay: quorum sensing inhibition, bioluminescence of the sensor strain
# Format: cell-based
# Details: Escherichia coli, 4 h, 3oxo-C6-HSL 100 nM; bioluminescence after 4 hours at 30° C.
# Description: Quorum sensing inhibition of the compounds was investigated with the aid of the bioluminescent sensor strain Escherichia coli MT102 (pSB403) (Winson et al., FEMS Microbiol. Lett. 163:185-92, 1998). Plasmid pSB403 contains the Photobacterium fischeri luxR gene together with the […] promoter region as a transcriptional fusion to the bioluminescence genes luxCDABE of Photorhabdus luminescence.
# Inhibitory studies were conducted in a microtitre dish assay as follows: the E. coli sensor strain grown over night in LB medium (Sambrook et al., Molecular Cloning: A Laboratory Manual. 2nd Edn. Cold Spring Harbor Laboratory, New York, 1989) was diluted 1:4 and grown for another 1 hour at 30° C. After addition of 3oxo-C6-HSL (final concentration 100 nM) 100 μl of an exponential culture suspension were filled in the wells of a FluoroNunc Polysorp microtitre dish. The test compounds were added to the culture in different concentrations and bioluminescence was measured after 4 hours of incubation at 30° C. with a Lamda Fluoro 320 Plus reader (Bio-Tek Instruments). Inhibitor-mediated reduction of light emission was correlated with the value obtained without addition of the test compounds. IC50 values (concentration of inhibitor required for 50% inhibition of the signal compared to the signal without inhibitor) were determined by using a fitting function after drawing a graph of the activities of eight different inhibitor concentrations.
row,Compound,pIC50
1,"Cn1nccc1NC(=O)c1cnc(Cl)nc1C(F)(F)F [Compound 1, 2-Chloro-4-trifluoromethyl-pyrimidine-5-carboxylic acid (2-methyl-2H-pyrazol-3-yl)-amide]",4.30 to 6.00
2,"COc1ccc(NC(=O)c2sccc2Br)cn1 [Compound 2, 3-Bromo-thiophene-2-carboxylic acid (6-methoxy-pyridin-3-yl)-amide]",4.30 to 6.00
3,"O=C(Nc1cccnc1)c1cc(Cl)sc1Cl [Compound 3, 2,5-Dichloro-thio-phene-3-carboxylic acid pyridin-3-ylamide]",4.30 to 6.00
4,"COC(=O)c1ccsc1NC(=O)c1cnc(Cl)nc1C(F)(F)F [Compound 4, 2-[(2-Chloro-4-trifluoro-methyl-pyrimidine-5-carbonyl)-amino]-thiophene-3-carboxylic acid methyl ester]",< 4.00
5,"COC(=O)c1scc(C)c1NC(=O)c1cccs1 [Compound 5, 4-Methyl-3-[(thiophene-2-carbonyl)-amino]-thiophene-2-carboxylic acid methyl ester]",< 4.00
6,"O=C(Nc1cccc(C(F)(F)F)c1)c1cnc(Cl)nc1C(F)(F)F [Compound 6, 2-Chloro-4-trifluoromethyl-pyrimidine-5-carboxylic acid (3-trifluoromethyl-phenyl)-amide]",4.00 to 4.30
7,"O=C(Nc1ccc(OC(F)(F)F)cc1)c1cnc(Cl)nc1C(F)(F)F [Compound 7, 2-Chloro-4-trifluoromethyl-pyrimidine-5-carboxylic acid (4-trifluoromethoxy-phenyl)-amide]",4.30 to 6.00
8,"COc1ccc(NC(=O)c2cccnc2SC)cn1 [Compound 8, N-(6-Methoxy-pyridin-3-yl)-2-methylsulfanyl-nicotinamide]",< 4.00
9,"COc1ccc(NC(=O)c2cncc(Br)c2)cn1 [Compound 9, 5-Bromo-N-(6-methoxy-pyridin-3-yl)-nicotinamide]",< 4.00
10,O=C(Nc1ccc(Br)cn1)c1cc(Cl)nc(Cl)c1 [Compound 10],< 4.00
11,"Cc1cc(C(=O)Nc2cccnc2)cc(Cl)n1 [Compound 11, 2-Chloro-6-methyl-N-pyridin-3-yl-iso-nicotinamide]",4.30 to 6.00
12,"CCn1nc(C)c(Br)c1C(=O)Nc1ccnn1C [Compound 12, 4-Bromo-2-ethyl-5-methyl-2H-pyrazole-3-carboxylic acid (2-methyl-2H-pyrazol-3-yl)-aide]",4.30 to 6.00
13,"Cc1cc(C(=O)Nc2ccnn2C)n(C(C)(C)C)n1 [Compound 13, 2-tert-Butyl-5-methyl-2H-pyrazole-3-carboxylic acid (2-methyl-2H-pyrazol-3-yl)-amide]",< 4.00
14,"Cn1nc(-c2ccc(Cl)cc2)cc1NC(=O)c1cccs1 [Compound 14, Thiophene-2-carboxylic acid [5-(4-chloro-phenyl)-2-methyl-2H-pyrazol-3-yl]-amide]",4.30 to 6.00
15,"Cn1nc(-c2cccs2)cc1NC(=O)c1cccc(Cl)c1 [Compound 15, 3-Chloro-N-(2-methyl-5-thiophen-2-yl-2H-pyrazol-3-yl)-benzamide]",4.30 to 6.00
16,"Cn1nc(-c2ccc(Cl)cc2)cc1NC(=O)CCCCCBr [Compound 16, 6-Bromo-hexanoic acid [5-(4chloro-phenyl)-2-methyl-2H-pyrazol-3-yl]-amide]",4.30 to 6.00
17,"CCCCCCC(=O)Nc1cc(-c2ccccc2)nn1C [Compound 17, Heptanoic acid (2-methyl-5-phenyl-2H-pyrazol-3-yl)-amide]",4.30 to 6.00
18,"Cn1nc(-c2ccccc2)cc1NC(=O)CCCCCBr [Compound 18, 6-Bromo-hexanoic acid (2-methyl-5-phenyl-2H-pyrazol-3-yl)-amide]",4.30 to 6.00
19,"CCCCCCC(=O)Nc1cc(-c2cccs2)nn1C [Compound 19, Heptanoic acid (2-methyl-5-thiophen-2-yl-2H-pyrazol-3-yl)-amide]",4.30 to 6.00
20,"Cn1nc(-c2cccs2)cc1NC(=O)CCCCCBr [Compound 20, 6-Bromo-hexanoic acid (2-methyl-5-thiophen-2-yl-2H-pyrazol-3-yl)-amide]",4.30 to 6.00
21,CCCCCCC(=O)Nc1c(Br)cnn1C [Compound 21],4.30 to 6.00
22,"Cn1nccc1NC(=O)CCCCCBr [Compound 22, 6-Bromo-hexanoic acid (2-methyl-2H-pyrazole-3-yl)-amide]",4.30 to 6.00
23,"Cn1ncc(Br)c1NC(=O)CCCCCBr [Compound 23, 6-Bromo-hexanoic acid (4-bromo-2-methyl-2H-pyrazol-3-yl)-amide]",4.30 to 6.00

row,Compound,pIC50
1,"CCCCCCC(=O)Nc1ccnn1C [Compound 24, Heptanoic acid (2-methyl-2H-pyrazol-3-yl)-amide]",4.30 to 6.00
2,"O=C(NNc1nccc(C(F)(F)F)n1)c1cccs1 [Compound 25, Thiophene-2carboxylic acid N′-(4-trifluoromethyl-pyrimidin-2-yl)-hydrazide]",4.30 to 6.00
3,"Cc1cc(C(=O)NNc2nccc(C(F)(F)F)n2)n(C)n1 [Compound 26, 2,5-Dimethyl-2H-pyrazole-3-carboxylic acid N′-(4-trifluoromethyl-pyrimidin-2-yl)-hydrazide]",4.30 to 6.00
4,"Cc1nc(C(F)(F)F)ccc1C(=O)NNC(=O)c1cccs1 [Compound 27, 2-Methyl-6-trifluoromethyl-nicotinic acid N′-(thiophene-2-carbonyl)-hydrazide]",4.30 to 6.00
5,"Cc1csc(C(=O)NNC(=O)c2ccc(C(F)(F)F)cc2)c1 [Compound 28, 4-Trifluoromethyl-benzoic acid N′-(4-methyl-thiophene-2-carbonyl)-hydrazide]",4.00 to 4.30
6,"O=C(NNC(=O)c1cccs1)c1ccc(OC(F)(F)F)cc1 [Compound 29, 4-Trifluoromethoxy-benzoic acid N′-(thiophene-2-carbonyl)-hydrazide]",< 4.00
7,"COc1cscc1C(=O)NNC(=O)c1ccc(Cl)cc1 [Compound 30, 4-Chloro-benzoic acid N′-(4-methoxy-thiophene-3-carbonyl)-hydrazide]",< 4.00
8,"O=C(NNC(=O)c1cccs1)c1cccc(Cl)c1 [Compound 31, 3-Chloro-benzoic acid N′-(thiophene-2-carbonyl)-hydrazide]",4.00 to 4.30
9,"Cc1c(C(=O)NNC(=O)c2cccs2)[n+]([O-])c2ccccc2[n+]1[O-] [Compound 32, N′-(3-Methyl-1,4dioxy-quinoxaline-2-carbonyl)-thiophene-2-carboxylic acid hydrazide]",4.00 to 4.30
10,"O=C(NNC(=O)c1sccc1Cl)c1cnn(-c2ccccc2)c1C(F)(F)F [Compound 33, 3-Chloro-thiophene-2-carboxylic acid N′-(1-phenyl-5-trifluoromethyl-1H-pyrazole-4-carbonyl)-hydrazide]",< 4.00
11,"O=C(NNC(=O)c1cnn(-c2ccc(Cl)cc2)c1C(F)(F)F)c1cccs1 [Compound 34, Thio-phene-2-carboxylic acid N′-[1-(4-chloro-phenyl)-5-trifluoromethyl-1H-pyrazole-4-carbonyl]-hydrazide]",4.00 to 4.30
12,"O=C(NNC(=O)c1cccs1)c1ccco1 [Compound 35, Furan-2-carboxylic acid N′-(thiophene-2-carbonyl)-hydrazide]",4.00 to 4.30
13,"Cc1csc(C(=O)NNC(=O)c2ccco2)c1Cl [Compound 36, Furan-2-carboxylic acid N′-(3-chloro-4-methyl-thiophene-2-carbonyl)-hydrazide]",4.00 to 4.30
14,"CCOc1ccsc1C(=O)NNC(=O)c1ccco1 [Compound 37, Furan-2-carboxylic acid N′-(3-ethoxy-thiophene-2-carbonyl)-hydrazide]",4.00 to 4.30
15,"COc1c(C(=O)NNC(=O)c2ccco2)csc1Cl [Compound 38, Furan-2-carboxylic acid N′-(5-chloro-4-methoxy-thiophene-3-carbonyl)-hydrazide]",4.30 to 6.00
16,"O=C(NNC(=O)c1sccc1Br)c1ccco1 [Compound 39, Furan-2-carboxylic acid N′-(3-bromo-thiophene-2-carbonyl)-hydrazide]",4.30 to 6.00
17,"O=C(NNC(=O)c1cc(Cl)sc1Cl)c1ccco1 [Compound 40, Furan-2-carboxylic acid N′-(2,5-dichloro-thiophene-3-carbonyl)-hydrazide]",4.30 to 6.00
18,"O=C(NNC(=O)c1sc2ccccc2c1Cl)c1ccco1 [Compound 41, Furan-2-carboxylic acid N′-(3-chloro-benzo[b]thiophene-2-carbonyl)-hydrazide]",4.30 to 6.00
19,"COc1c(C(=O)NNC(=O)c2cccs2)csc1Br [Compound 42, Thiophene-2-carboxylic acid N′-(5-bromo-4-methoxy-thiophene-3-carbonyl)-hydrazide]",4.30 to 6.00
20,"Cc1csc(C(=O)NNC(=O)c2cccs2)c1Cl [Compound 43, Thiophene-2-carboxylic acid N′-(3-chloro-4-methyl-thiophene-2-carbonyl)-hydrazide]",4.30 to 6.00
21,"CCOc1ccsc1C(=O)NNC(=O)c1sccc1Cl [Compound 44, 3-Chloro-thiophene-2-carboxylic acid N′-(3-ethoxy-thiophene-2-carbonyl)-hydrazide]",< 4.00
22,"CCOc1ccsc1C(=O)NNC(=O)c1cccs1 [Compound 45, Thiophene-2-carboxylic acid N′-(3-ethoxy-thiophene-2-carbonyl)-hydrazide]",4.30 to 6.00
23,"O=C(NNC(=O)c1cccs1)c1cccs1 [Compound 46, Thiophene-2-carboxylic acid N′-(thiophene-2-carbonyl)-hydrazide]",4.00 to 4.30

# Source: patent US20090076012A1, “Modulation of pathogenicity” (priority 2002, published 2009)
